Target: T1, Human Polθ polymerase domain (aa1820-2590) (Homo sapiens, UniProt O75417)
T1 construct: Human Polθ polymerase domain (aa1820-2590) was expressed in E. coli; made in house; host or cells: E. coli
T1 sequence (O75417 1820-2590): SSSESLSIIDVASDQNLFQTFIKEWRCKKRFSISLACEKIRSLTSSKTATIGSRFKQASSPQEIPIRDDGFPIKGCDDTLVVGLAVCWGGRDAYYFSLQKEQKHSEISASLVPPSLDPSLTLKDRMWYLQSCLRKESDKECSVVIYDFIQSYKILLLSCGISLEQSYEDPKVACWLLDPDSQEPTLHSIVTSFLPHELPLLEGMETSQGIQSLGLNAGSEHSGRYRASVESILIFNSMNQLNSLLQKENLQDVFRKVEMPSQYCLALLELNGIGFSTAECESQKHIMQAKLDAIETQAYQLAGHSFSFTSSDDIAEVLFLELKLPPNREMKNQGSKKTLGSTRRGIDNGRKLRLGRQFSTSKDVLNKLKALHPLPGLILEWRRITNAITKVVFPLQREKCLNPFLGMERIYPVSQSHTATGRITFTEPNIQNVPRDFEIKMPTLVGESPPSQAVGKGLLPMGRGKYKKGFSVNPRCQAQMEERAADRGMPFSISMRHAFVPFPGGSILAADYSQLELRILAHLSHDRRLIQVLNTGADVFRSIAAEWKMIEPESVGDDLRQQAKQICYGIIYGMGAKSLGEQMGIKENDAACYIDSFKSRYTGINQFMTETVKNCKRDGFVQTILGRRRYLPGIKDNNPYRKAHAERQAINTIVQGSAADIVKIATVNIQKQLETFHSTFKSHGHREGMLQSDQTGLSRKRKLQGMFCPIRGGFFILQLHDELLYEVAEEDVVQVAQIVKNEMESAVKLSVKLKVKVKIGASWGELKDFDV
Assay: Polθ Polymerase Domain Kinact/KI Assay (PicoGreen)
Type: biochemical
Conditions: 0.8 nM Polθ, 100 nM DNA substrate, kobs vs [I] fit for 2-step covalent inhibitor
How it was run: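 Covalent inhibitors were tested against E. coli-expressed enzyme (0.8 nM final) with 100 nM annealed DNA substrate and […] in Tris pH 7.5 buffer, 1% DMSO. Reactions were EDTA-quenched over a 0–60 min time course and product DNA detected by PicoGreen fluorescence.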

Row | SMILES | Kinact/Kl
1 | C/C=C(\CN(C)C)C(=O)Nc1ccc(CN2C[C@H]3CC(=O)N(c4cc(C(F)(F)F)cc(C)n4)[C@@H]3C(=O)N(C)c3cccc(C)c32)cc1 [Example 89, (E)-N-(4-(((3aR,11aS)-6,10-dimethyl-1-(6-methyl-4-(trifluoromethyl)pyridin-2-yl)-2,11-dioxo-1,2,3,3a,4,10,11,11a-octahydro-5H-benzo[b]pyrrolo[2,3-f][1,4]diazocin-5-yl)methyl)phenyl)-2-((dimethylamino)methyl)but-2-enamide] | 2.4e+06 M⁻¹ s⁻¹
2 | C=CC(=O)Nc1ccc(CN2C[C@H]3CC(=O)N(c4cc(C(F)(F)F)cc(C)n4)[C@@H]3C(=O)N(C)c3cccc(C)c32)cc1OC [Example 90, N-(4-(((3aR,11aS)-6,10-dimethyl-1-(6-methyl-4-(trifluoromethyl)pyridin-2-yl)-2,11-dioxo-1,2,3,3a,4,10,11,11a-octahydro-5H-benzo[b]pyrrolo[2,3-f][1,4]diazocin-5-yl)methyl)-2-methoxyphenyl)acrylamide] | 2.09e+06 M⁻¹ s⁻¹
3 | C=CC(=O)Nc1ccc(CN2C[C@H]3CC(=O)N(c4cc(C(F)(F)F)cc(C)n4)[C@@H]3C(=O)N(C)c3cccc(C)c32)cc1N(C)CCN(C)C [Example 91, N-(4-(((3aR,11aS)-6,10-dimethyl-1-(6-methyl-4-(trifluoromethyl)pyridin-2-yl)-2,11-dioxo-1,2,3,3a,4,10,11,11a-octahydro-5H-benzo[b]pyrrolo[2,3-f][1,4]diazocin-5-yl)methyl)-2-((2-(dimethylamino)ethyl)(methyl)amino)phenyl)acrylamide] | 4.38e+06 M⁻¹ s⁻¹
4 | C=CC(=O)N1CC(N2CCC(CN3C[C@H]4CC(=O)N(c5cc(C(F)(F)F)cc(C)n5)[C@@H]4C(=O)N(C)c4cccc(Cl)c43)CC2)C1 [Example 92, (3aR,11aS)-5-((1-(1-acryloylazetidin-3-yl)piperidin-4-yl)methyl)-6-chloro-10-methyl-1-(6-methyl-4-(trifluoromethyl)pyridin-2-yl)-1,3a,4,5,10,11a-hexahydro-2H-benzo[b]pyrrolo[2,3-f][1,4]diazocine-2,11(3H)-dione] | 2.56e+06 M⁻¹ s⁻¹
5 | C=CC(=O)N1CC(N2CCC(CN3C[C@H]4CC(=O)N(c5cc(C(F)(F)F)cc(C)n5)[C@@H]4C(=O)N(C)c4cccc(C)c43)CC2)C1 [Example 93, (3aR,11aS)-5-((1-(1-acryloylazetidin-3-yl)piperidin-4-yl)methyl)-6,10-dimethyl-1-(6-methyl-4-(trifluoromethyl)pyridin-2-yl)-1,3a,4,5,10,11a-hexahydro-2H-benzo[b]pyrrolo[2,3-f][1,4]diazocine-2,11(3H)-dione] | 2.73e+06 M⁻¹ s⁻¹
6 | C=CC(=O)N1CC(N2CCC(F)(CN3C[C@H]4CC(=O)N(c5cc(C(F)(F)F)cc(C)n5)[C@@H]4C(=O)N(C)c4cccc(C)c43)CC2)C1 [Example 94, (3aR,11aS)-5-((1-(1-acryloylazetidin-3-yl)-4-fluoropiperidin-4-yl)methyl)-6,10-dimethyl-1-(6-methyl-4-(trifluoromethyl)pyridin-2-yl)-1,3a,4,5,10,11a-hexahydro-2H-benzo[b]pyrrolo[2,3-f][1,4]diazocine-2,11(3H)-dione] | 1.54e+06 M⁻¹ s⁻¹
7 | C=CC(=O)N1CC(N2CCC(CN3C[C@H]4CC(=O)N(c5cc(C(F)(F)F)cc(C)n5)[C@@H]4C(=O)N(C)c4cccc(Cl)c43)C(O)C2)C1 (stereo partly drawn) [Example 96, (3aR,11aS)-5-((1-(1-acryloylazetidin-3-yl)-3-hydroxypiperidin-4-yl)methyl)-6-chloro-10-methyl-1-(6-methyl-4-(trifluoromethyl)pyridin-2-yl)-1,3a,4,5,10,11a-hexahydro-2H-benzo[b]pyrrolo[2,3-f][1,4]diazocine-2,11(3H)-dione] | 810000 M⁻¹ s⁻¹
8 | C=CC(=O)N1CC(N2CCN(C(C)CN3C[C@H]4CC(=O)N(c5cc(C(F)(F)F)cc(C)n5)[C@@H]4C(=O)N(C)c4cccc(F)c43)CC2)C1 (stereo partly drawn) [Example 97, (3aR,11aS)-5-(2-(4-(1-acryloylazetidin-3-yl)piperazin-1-yl)propyl)-6-fluoro-10-methyl-1-(6-methyl-4-(trifluoromethyl)pyridin-2-yl)-1,3a,4,5,10,11a-hexahydro-2H-benzo[b]pyrrolo[2,3-f][1,4]diazocine-2,11(3H)-dione] | 1.18e+06 M⁻¹ s⁻¹
9 | C=CC(=O)N1CC(c2nc(CN3C[C@H]4CC(=O)N(c5cc(C(F)(F)F)cc(C)n5)[C@@H]4C(=O)N(C)c4cccc(F)c43)n[nH]2)C1 [Example 98, (3aR,11aS)-5-((5-(1-acryloylazetidin-3-yl)-1H-1,2,4-triazol-3-yl)methyl)-6-fluoro-10-methyl-1-(6-methyl-4-(trifluoromethyl)pyridin-2-yl)-1,3a,4,5,10,11a-hexahydro-2H-benzo[b]pyrrolo[2,3-f][1,4]diazocine-2,11(3H)-dione] | 430000 M⁻¹ s⁻¹

Next, values leading:

Row | Kinact/Kl | SMILES
10 | 170000 M⁻¹ s⁻¹ | C=CC(=O)N1CC(c2nc(CN3C[C@H]4CC(=O)N(c5cc(C(F)(F)F)cc(C)n5)[C@@H]4C(=O)N(C)c4cccc(F)c43)n(C)n2)C1 [Example 99, (3aR,11aS)-5-((3-(1-acryloylazetidin-3-yl)-1-methyl-1H-1,2,4-triazol-5-yl)methyl)-6-fluoro-10-methyl-1-(6-methyl-4-(trifluoromethyl)pyridin-2-yl)-1,3a,4,5,10,11a-hexahydro-2H-benzo[b]pyrrolo[2,3-f][1,4]diazocine-2,11(3H)-dione]
11 | 100000 M⁻¹ s⁻¹ | C=CC(=O)N1CC(c2nc(CN3C[C@H]4CC(=O)N(c5cc(C(F)(F)F)cc(C)n5)[C@@H]4C(=O)N(C)c4cccc(F)c43)nn2C)C1 [Example 100, (3aR,11aS)-5-((5-(1-acryloylazetidin-3-yl)-1-methyl-1H-1,2,4-triazol-3-yl)methyl)-6-fluoro-10-methyl-1-(6-methyl-4-(trifluoromethyl)pyridin-2-yl)-1,3a,4,5,10,11a-hexahydro-2H-benzo[b]pyrrolo[2,3-f][1,4]diazocine-2,11(3H)-dione]
12 | 1.47e+06 M⁻¹ s⁻¹ | C=CC(=O)N1CC(c2nc(CN3C[C@H]4CC(=O)N(c5cc(C(F)(F)F)cc(C)n5)[C@@H]4C(=O)N(C)c4cccc(F)c43)no2)C1 [Example 101, (3aR,11aS)-5-((5-(1-acryloylazetidin-3-yl)-1,2,4-oxadiazol-3-yl)methyl)-6-fluoro-10-methyl-1-(6-methyl-4-(trifluoromethyl)pyridin-2-yl)-1,3a,4,5,10,11a-hexahydro-2H-benzo[b]pyrrolo[2,3-f][1,4]diazocine-2,11(3H)-dione]
13 | 1.16e+06 M⁻¹ s⁻¹ | C=CC(=O)N1CC(c2noc(CN3C[C@H]4CC(=O)N(c5cc(C(F)(F)F)cc(C)n5)[C@@H]4C(=O)N(C)c4cccc(F)c43)n2)C1 [Example 102, (3aR,11aS)-5-((3-(1-acryloylazetidin-3-yl)-1,2,4-oxadiazol-5-yl)methyl)-6-fluoro-10-methyl-1-(6-methyl-4-(trifluoromethyl)pyridin-2-yl)-1,3a,4,5,10,11a-hexahydro-2H-benzo[b]pyrrolo[2,3-f][1,4]diazocine-2,11(3H)-dione]
14 | 1.6e+06 M⁻¹ s⁻¹ | C=CC(=O)N1CC(c2nnc(CN3C[C@H]4CC(=O)N(c5cc(C(F)(F)F)cc(C)n5)[C@@H]4C(=O)N(C)c4cccc(F)c43)o2)C1 [Example 103, (3aR,11aS)-5-((5-(1-acryloylazetidin-3-yl)-1,3,4-oxadiazol-2-yl)methyl)-6-fluoro-10-methyl-1-(6-methyl-4-(trifluoromethyl)pyridin-2-yl)-1,3a,4,5,10,11a-hexahydro-2H-benzo[b]pyrrolo[2,3-f][1,4]diazocine-2,11(3H)-dione]
15 | 1.86e+06 M⁻¹ s⁻¹ | C=CC(=O)N1CC2(CN(CCN3C[C@H]4CC(=O)N(c5cc(C(F)(F)F)cc(C)n5)[C@@H]4C(=O)N(C)c4cccc(F)c43)CC(=O)N2)C1 [Example 104, (3aR,11aS)-5-(2-(2-acryloyl-6-oxo-2,5,8-triazaspiro[3.5]nonan-8-yl)ethyl)-6-fluoro-10-methyl-1-(6-methyl-4-(trifluoromethyl)pyridin-2-yl)-1,3a,4,5,10,11a-hexahydro-2H-benzo[b]pyrrolo[2,3-f][1,4]diazocine-2,11(3H)-dione]
16 | 1.04e+06 M⁻¹ s⁻¹ | C=CC(=O)N1CC2(CN(CCN3C[C@H]4CC(=O)N(c5cc(C(F)(F)F)cc(C)n5)[C@@H]4C(=O)N(C)c4cccc(F)c43)Cc3nccn32)C1 [Example 105, (3aR,11aS)-5-(2-(1-acryloyl-6′H-spiro[azetidine-3,5′-imidazo[1,2-a]pyrazin]-7′(8′H)-yl)ethyl)-6-fluoro-10-methyl-1-(6-methyl-4-(trifluoromethyl)pyridin-2-yl)-1,3a,4,5,10,11a-hexahydro-2H-benzo[b]pyrrolo[2,3-f][1,4]diazocine-2,11(3H)-dione]
